Several values for one entry are separate records, joined by “and”; a condition that tells them apart may be missing. Equal entries are not always repeated. Structures can show the parent of a compound that is named as a salt. Where two headings read alike, the source gives them in different places.
Assays:
σ2 receptor [1] = biological target: T1, σ2 receptor (Rattus norvegicus, UniProt Q5U3Y7); experiment: σ2 receptor binding assay, [3H]DTG, rat liver membrane homogenates; design: conducted using rat liver membrane homogenates; from tissue; host or cells: rat liver membrane homogenates
T1 sequence (Q5U3Y7 1-176): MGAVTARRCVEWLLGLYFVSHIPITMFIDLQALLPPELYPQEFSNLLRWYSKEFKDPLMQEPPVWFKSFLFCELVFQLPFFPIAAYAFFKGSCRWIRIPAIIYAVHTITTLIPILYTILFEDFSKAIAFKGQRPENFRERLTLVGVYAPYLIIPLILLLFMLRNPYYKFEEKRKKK
Protocol: (§1) The compounds were dissolved in DMF, DMSO, or ethanol, and then diluted in 50 mM Tris-HCl buffer containing 150 mM NaCl and 100 mM EDTA at pH 7.4, prior to performing the σ1 and σ2 receptor binding assays.
The incubation time was 2 h at room temperature. Nonspecific binding was determined from samples that contained 10 μM of cold haloperidol. All other procedures were identical to those described for the σ1 receptor binding assay above.
(§2) Ki values were calculated using the method of Cheng and Prusoff and are presented as the mean (±1 SEM).

VAChT = biological target: T2, VAChT (Tetronarce californica, UniProt P81721); experiment: biochemical; assay type: binding; conditions: for VAChT/σ selectivity: in words; for σ1/VAChT: selectivity index Ki (σ1)/Ki (VAChT); for σ2/VAChT: selectivity index Ki (σ2)/Ki (VAChT)
T2 construct: using highly purified Torpedo synaptic vesicles; from tissue
T2 sequence (P81721 1-515): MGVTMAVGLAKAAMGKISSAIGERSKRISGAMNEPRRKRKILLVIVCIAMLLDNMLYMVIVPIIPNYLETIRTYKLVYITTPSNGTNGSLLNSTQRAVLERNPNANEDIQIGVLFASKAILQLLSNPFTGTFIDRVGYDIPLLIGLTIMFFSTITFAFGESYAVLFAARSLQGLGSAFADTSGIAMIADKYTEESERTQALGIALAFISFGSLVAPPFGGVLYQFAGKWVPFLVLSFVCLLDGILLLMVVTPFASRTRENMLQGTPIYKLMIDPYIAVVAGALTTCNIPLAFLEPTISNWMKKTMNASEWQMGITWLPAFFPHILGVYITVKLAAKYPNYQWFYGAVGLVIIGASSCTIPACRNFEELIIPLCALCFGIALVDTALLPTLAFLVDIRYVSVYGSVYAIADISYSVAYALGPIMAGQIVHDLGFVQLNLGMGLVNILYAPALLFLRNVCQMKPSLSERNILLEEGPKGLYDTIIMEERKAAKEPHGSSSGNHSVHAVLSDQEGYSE

σ2 receptor [2] = biological target: T1, σ2 receptor; experiment: σ2 binding of Table 5 compounds; design: species or system guinea pig; conditions: read-out: σ2 Ki (nM) ± SEM; Table 6
Protocol: Compounds were tested for VAChT binding using highly purified Torpedo synaptic vesicles. The σ1 and σ2 binding affinities were tested in rat brain and in guinea pig membranes, respectively. Structures and Equilibrium binding constants (Ki) are reported in Table 5 and Table 6, respectively. As in previous studies, we define ligand selectivity in terms of a selectivity index which is calculated as Ki (σ1 or σ2)/Ki (VAChT).
Consequently, we also screened the target compounds for sigma binding to identify selective VAChT ligands from this new structural class of agents.

σ1 receptor = biological target: T3, σ1 receptor (Cavia porcellus, UniProt Q60492); experiment: σ1 receptor binding assay, (+)-[3H]pentazocine, guinea pig brain membranes
T3 construct: using guinea pig brain membrane homogenates; from tissue; host or cells: guinea pig brain membrane homogenates
Protocol: as §1
The total incubation time was 90 min at room temperature. Nonspecific binding was determined from samples that contained 10 μM of cold haloperidol. After 90 min, the reaction was quenched by adding 150 μL of ice-cold wash buffer (10 mM Tris-HCl, 150 mM NaCl, pH 7.4) using a 96 channel transfer pipet (Fisher Scientific, Pittsburgh, Pa.). The samples were harvested and filtered rapidly through a 96-well fiberglass filter plate (Millipore, Billerica, Mass.) that had been presoaked with 100 μL of 50 mM Tris-HCl buffer at pH 8.0 for 1 h.
as §2

[3] = biological target: T4, human vesicular acetylcholine transporter (VAChT) (Homo sapiens, UniProt Q16572); experiment: VAChT binding assay, (−)-[3H]vesamicol, human VAChT expressed in PC12 cells
T4 construct: expressed in transfected cells; host or cells: PC12 A123.7 cells (crude extract / homogenized, partially clarified cells)
T4 sequence (Q16572 1-532): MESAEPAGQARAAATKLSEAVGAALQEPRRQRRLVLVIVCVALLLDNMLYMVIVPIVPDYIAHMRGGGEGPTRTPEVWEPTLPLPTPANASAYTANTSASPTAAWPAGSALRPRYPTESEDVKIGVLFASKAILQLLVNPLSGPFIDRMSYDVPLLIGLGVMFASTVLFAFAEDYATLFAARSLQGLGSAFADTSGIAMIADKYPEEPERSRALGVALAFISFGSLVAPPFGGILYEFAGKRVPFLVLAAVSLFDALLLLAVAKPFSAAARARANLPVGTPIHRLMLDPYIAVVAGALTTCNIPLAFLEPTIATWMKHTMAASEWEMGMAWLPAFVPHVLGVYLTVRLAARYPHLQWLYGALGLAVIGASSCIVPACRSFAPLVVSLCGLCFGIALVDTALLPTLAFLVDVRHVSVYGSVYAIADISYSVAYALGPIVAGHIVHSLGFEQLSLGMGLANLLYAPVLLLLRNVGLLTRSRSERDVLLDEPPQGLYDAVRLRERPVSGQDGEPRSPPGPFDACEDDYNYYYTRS
Protocol: In vitro binding assays of these novel compounds to VAChT were conducted with human vesicular acetylcholine transporter (VAChT) permanently expressed in PC12^A123.7 cells at about 50 pmol/mg of crude extract. […] Duplicate data were averaged and fitted by regression with a rectangular hyperbola to estimate the Ki value of the novel compound. All compounds were independently assayed at least two times.

[4] = Table 4, Ki values of VAChT specific compounds, tissue not given, read-out: Sigma-2 σ1
[5] = Table 4, Ki values of VAChT specific compounds, tissue not given, read-out: Sigma-1 σ1
[6] = Table 4, Ki values of VAChT specific compounds, source not given, read-out: VAChT

T3 sequence (Q60492 whole entry): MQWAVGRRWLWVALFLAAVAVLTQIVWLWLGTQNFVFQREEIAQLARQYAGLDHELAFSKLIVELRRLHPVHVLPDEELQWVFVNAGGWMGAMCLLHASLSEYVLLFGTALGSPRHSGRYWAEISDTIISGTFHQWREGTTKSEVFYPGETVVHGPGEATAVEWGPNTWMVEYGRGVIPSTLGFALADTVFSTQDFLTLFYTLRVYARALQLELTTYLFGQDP

Row | Ki (σ2 receptor [1]; [4]) | Ki [3, 6] | Compound | Ki (VAChT) | Ki (σ2 receptor [2]) | further results
1 | 3950 ± 278 nM | – | O=C(c1ccc(F)cc1)C1CCN(C2CN(C(=O)c3ccccc3)CCC2O)CC1 (centres unmarked) [WW-1-39] | – | – | –
2 | – | – | O=C(c1ccc(F)nc1)C1CCN(C2Cc3ccccc3CC2O)CC1 (centres unmarked) [TZ-4-1-154, (6-fluoropyridin-3-yl)(1-(3-hydroxy-1,2,3,4-tetrahydronaphthalen-2-yl)piperidin-4-yl)methanone oxalate] | 26.1 ± 2.41 nM | 1750 ± 93 nM | VAChT/σ selectivity (VAChT): moderate or high; σ1/VAChT (VAChT): 26.2; σ2/VAChT (VAChT): 67.0
3 | 2600 ± 363 nM | – | COc1ccc(C(=O)C2CCN(C3CN(C(=O)c4ccc(F)cc4)CCC3O)CC2)cc1 (centres unmarked) [WW-1-107] | – | – | –
4 | – | – | O=C(c1ccc(F)cc1)C1CCN(C2CCN(Cc3ccc(F)cc3)CC2O)CC1 (racemic) [Compound 14a, (1′-(4-Fluorobenzyl)-3′-hydroxy-[1,4′-bipiperidin]-4-yl)(4-fluorophenyl)methanone] | – | – | Ki (σ1 receptor; membrane preparations of guinea pig brain, mean ± SEM, at least three experiments, read-out: σ1 (Ki)): < 5 nM and 0.48 nM
5 | – | – | (4′-Hydroxy-1′-(pyridin-4-ylmethyl)-[1,3′-bipiperidin]-4-yl)(4-methoxyphenyl)methanone [Compound 16h] | – | – | Ki (σ2 receptor [1]; homogenates of rat liver, mean ± SEM, read-out: σ2 (Ki)): 17100 ± 3860 nM
6 | – | – | O=C(c1cccnc1F)C1CCN(C2Cc3ccccc3CC2O)CC1 (centres unmarked) [TZ-4-1-122, (2-fluoropyridin-3-yl)(1-(3-hydroxy-1,2,3,4-tetrahydronaphthalen-2-yl)piperidin-4-yl)methanone] | 12.7 ± 2.41 nM | 3530 ± 331 nM | VAChT/σ selectivity (VAChT): moderate or high; σ1/VAChT (VAChT): 102.2; σ2/VAChT (VAChT): 277.9
7 | – | – | O=C(c1ncccc1OCCF)C1CCN(C2Cc3ccccc3CC2O)CC1 (centres unmarked) [TZ-4-2-12, (3-(2-fluoroethoxy)pyridin-2-yl)(1-(3-hydroxy-1,2,3,4-tetrahydronaphthalen-2-yl)piperidin-4-yl)methanone oxalate] | 76.4 ± 8.33 nM | 303 ± 130 nM | VAChT/σ selectivity (VAChT): poor selectivity; σ1/VAChT (VAChT): 262.0; σ2/VAChT (VAChT): 4.0
8 | 13000 ± 2630 nM | 237 ± 41.4 nM | O=C(c1ccc(F)cc1)C1CCN(C2CN(Cc3cccnc3)CCC2O)CC1 (centres unmarked) [WW-III-47] | – | – | Ki (σ1 receptor; [5]): 1160 ± 128 nM
9 | 1953 ± 13.1 nM | 4.64 ± 0.47 nM | COc1ccc(C(=O)C2CCN(C3Cc4ccccc4CC3O)CC2)cc1 (centres unmarked) [DZT-I-107] | – | – | Ki (σ1 receptor; [5]): 132 ± 10.1 nM
10 | 14700 ± 1940 nM | 366 ± 36 nM | Nc1cccc2c1CC(N1CCC(C(=O)c3ccc(F)cc3)CC1)C(O)C2 (single isomer, unassigned) [WW-1-88-1] | – | – | Ki (σ1 receptor; [5]): 3690 ± 537 nM
11 | – | – | Cn1c(C(=O)C2CCN(C3Cc4ccccc4CC3O)CC2)cccc1=O (centres unmarked) [TZ-4-1-148, 6-(1-(3-Hydroxy-1,2,3,4-tetrahydronaphthalen-2-yl)piperidine-4-carbonyl)-1-methylpyridin-2(1H)-one] | 182 ± 64.8 nM | 3340 ± 127 nM | VAChT/σ selectivity (VAChT): poor selectivity; σ1/VAChT (VAChT): 11.8; σ2/VAChT (VAChT): 18.3
12 | 4050 ± 244 nM | – | O=C(c1ccc(F)cc1)C1CCN(C2CN(C(=O)c3cccs3)CCC2O)CC1 (centres unmarked) [WW-III-43] | – | – | –
13 | 15500 ± 2170 nM | 807 ± 139 nM | O=C(c1ccc(F)cc1)C1CCN(C2CN(C(=O)c3cccnc3)CCC2O)CC1 (centres unmarked) [WW-III-45] | – | – | –
14 | – | – | O=C(c1ccc(F)cc1)C1CCN(C2CCN(C(=O)c3ccc(F)cc3)CC2O)CC1 (centres unmarked) [Compound 15a, (3′-Hydroxy-[1,4′-bipiperidine]-1′,4-diyl)bis(4-fluorophenyl)methanone] | – | – | Ki ([3]; expressed human VAChT, mean ± SEM, read-out: VAChT (Ki)): 3600 ± 499 nM

Row | Compound | Ki (σ2 receptor [1]; [4]) | Ki [3, 6] | Ki (VAChT) | Ki (σ2 receptor [2]) | further results
15 | Cc1ccc(C(=O)C2CCN(C3Cc4c(N)cccc4CC3O)CC2)cn1 (centres unmarked) [OS-5-70, (1-(8-amino-3-hydroxy-1,2,3,4-tetrahydronaphthalen-2-yl)piperidin-4-yl)(6-methylpyridin-3-yl)methanone oxalate] | 27500 ± 6940 nM | 48 ± 11.4 nM | 48 ± 11.4 nM | 27500 ± 6940 nM | –
